Reference: patent US20140328799A1, “COMPOSITIONS USEFUL FOR THE TREATMENT OF VIRAL DISEASES” (priority 2011, published 2014)
“Also recorded” adds a separate entry of the source.

Tested on: HCV replicons encoding amino acid variations R155K, A156T, and D168Y in the NS3 protease
Assay: HCV replicon TaqMan assay, variants compared with wildtype
Format: cell-based, Hepatitis C virus
Details: NS3 protease variants versus wildtype genotype 1b (con1)
Method: The day prior to titration replicon cells are seeded into a 96-well Costar black-walled clear bottom plate (3,000 cells/well) in 100 μl complete D-MEM and incubated 0/N at 37° C. The next morning 25 μl of compound dilutions (5× final concentration) in complete DMEM and 5% DMSO are added, adjusting the final DMSO concentration to 1.0%. Cells with compound are incubated for 48 hours at 37° C.
Total RNA is isolated from cells of each well using the QIAGEN RNeasy 96-well kit according to manufacturer's instructions (QIAGEN, Inc. Valencia, Calif.). RNA is eluted twice in 60 μl aliquots and combined. […]
The normalized value for the amount of replicon RNA is determined by measuring the experimental cycle threshold CT as described above, determining the amount of RNA against a standard curve of total replicon cell RNA, and normalizing this to the signal produced by the cellular human Cyclophilin A gene using Taqman PDAR Human Cyclophilin (Applied Biosystems Inc., Foster City, Calif.).
HCV replicons encoding amino acid variations R155K, A156T, and D168Y in the NS3 protease have been constructed using standard techniques in molecular cloning. The susceptibility of these replicon variants to inhibition by Compound 6 and a Compound T4, was assessed in the HCV replicon assay, and the results are shown in Table 2. […]

SMILES	change in susceptibility to inhibition of replicon variants versus wildtype
C[C@@]1(O)[C@H](O)[C@@H](CO)O[C@H]1n1cnc2c(N)ncnc21 [Compound T4]	no significant change in susceptibility to inhibition; also recorded: no loss of potency
CC[C@@H]1C[C@]1(NC(=O)[C@@H]1C[C@@H]2CN1C(=O)[C@H](C(C)(C)C)NC(=O)OCC(C)(C)CCCCc1cccc3c1CN(C3)C(=O)O2)C(=O)NS(=O)(=O)C1CC1 [Compound 6]	significantly reduced susceptibility to inhibition; also recorded: significant losses of potency
